{"source": "ChEMBL document CHEMBL5634150", "about": "“Design, synthesis and biological evaluation of novel dihydroquinolin-4(1H)-one derivatives as novel tubulin polymerization inhibitors” (Eur J Med Chem, 2023)", "key": {"[1]": {"system": "HUVEC", "assay": "Anti-angiogenesis activity in HUVEC cells assessed as disruption of capillary tube structure at 1.5 to 6 nM measured after 6 hrs by contrast microscopy based analysis", "format": "functional, cell-based", "conditions": "Homo sapiens, dose 1.5-6 nM"}, "[2]": {"system": "K562", "assay": "Induction of apoptosis in human K562 cells assessed as chromatin aggregation at 1.5 to 6 nM incubated for 24 hrs by Hoechst 33342 staining based fluorescence microscopic analysis", "format": "functional, cell-based", "conditions": "dose 1.5-6 nM"}, "[3]": {"system": "MDA-MB-231", "assay": "Antiproliferative activity against human MDA-MB-231 cells assessed as inhibition of cell growth measured after 72 hrs by MTT assay", "format": "functional, cell-based", "conditions": "MDA-MB-231, 72 h"}, "[4]": {"assay": "Toxicity in mouse assessed as effect on body weight loss at 20 mg/kg, iv administered once daily for 3 weeks", "format": "organism-based", "conditions": "in vivo, 504 h"}, "[5]": {"target": "T1, Tubulin (Homo sapiens) (UniProt P68371+Q9H4B7+P0DPH7+P68366+Q13509+Q71U36+P04350+Q3ZCM7+P07437+P68363+Q9BQE3+Q6PEY2+Q13885+Q9BVA1+Q9BUF5)", "assay": "Inhibition of tubulin polymerization in human K562 cells assessed as microtubule destruction network at 1.5 to 6 uM incubated for 48 hrs by immunofluorescence staining based inverted microscopic analysis", "format": "cell-based", "conditions": "dose 1.5-6 µM"}, "[6]": {"assay": "Toxicity in mouse assessed as effect on spleen at 20 mg/kg by H and E staining based microscopic analysis", "format": "organism-based", "conditions": "in vivo"}, "[7]": {"system": "K562", "assay": "Induction of cell cycle arrest in human K562 cells assessed as accumulation of cells at G2/M phase at 1.5 nM incubated overnight by PI staining based flow cytometry analysis (reference value: 5.57%)", "format": "functional"}, "[8]": {"assay": "Metabolic stability in mouse plasma assessed as compound remaining at 1 uM and measured at 3 hrs by LC-MS/MS analysis", "format": "ADME, cell-free", "conditions": "read-out: Stability"}, "[9]": {"system": "K562", "assay": "Induction of apoptosis in human K562 cells at 1.5 nM measured after 48 hrs by Annexin V-FITC/7-AAD staining based flow cytometric analysis relative to control", "format": "functional"}, "[10]": {"system": "Cell membrane", "assay": "Induction of mitochondrial membrane depolarization in human K562 cells assessed as increase in green fluorescence intensity at incubated for 48 hrs by JC-1 staining based flow cytometry", "format": "cell membranes", "conditions": "dose 1.5-6 nM"}, "[11]": {"assay": "Metabolic stability in mouse plasma assessed as half life at 1 uM and measured upto 3 hrs by LC-MS/MS analysis", "format": "ADME, cell-free"}, "[12]": {"system": "K562", "assay": "Induction of apoptosis in human K562 cells assessed as nuclear fragmentation at 1.5 to 6 nM incubated for 24 hrs by Hoechst 33342 staining based fluorescence microscopic analysis", "format": "functional, cell-based", "conditions": "dose 1.5-6 nM"}, "[13]": {"target": "Tubulin", "assay": "(§1) Inhibition of tubulin polymerization (unknown origin) preincubated for 5 mins and measured every 5 mins for 60 mins by absorbance based analysis", "format": "protein-complex assay, Homo sapiens"}, "[14]": {"target": "T1, Tubulin (Homo sapiens)", "assay": "as §1", "format": "protein-complex assay", "conditions": "dose 5-10 µM, time 65.0 min"}, "[15]": {"system": "HUVEC", "assay": "Anti-angiogenesis activity in HUVEC cells assessed as reduction in […] at 400 nM measured after 24 hrs by wound healing assay relative to control", "format": "functional, Homo sapiens", "parameters": "scale not given: the % may be the effect or the level left"}, "[16]": {"system": "HUVEC", "assay": "Anti-angiogenesis activity in HUVEC cells at 1.5 to 6 nM measured after 24 hrs by wound healing assay", "format": "functional, cell-based", "conditions": "Homo sapiens, dose 1.5-6 nM"}, "[17]": {"system": "H22", "assay": "Antitumor activity against mouse H22 cells allografted in mouse model assessed as decrease in MVD cells at 20 mg/kg by immunohistochemistry analysis", "format": "functional, organism-based"}}, "note": "Calls of active or inactive are those of the source. No cut-off for these calls is given here.", "data": [{"compound": "CCn1ccc2cc(N3CCC(=O)c4c3cc(OC)c(OC)c4OC)ccc21", "values": [{"measurement": "Activity", "setting": "[1]", "value": "Active"}, {"measurement": "Activity", "setting": "[2]", "value": "Active"}, {"measurement": "IC50", "setting": "[3]", "value": 24, "unit": "nM"}, {"measurement": "Activity", "setting": "[4]", "value": "Non-Toxic"}, {"measurement": "inhibition", "setting": "[5]", "value": "Active"}, {"measurement": "Activity", "setting": "[6]", "value": "Non-Toxic"}, {"measurement": "Activity", "setting": "[7]", "value": 10.62, "unit": "%"}, {"measurement": "remaining at 3 h, 1 µM", "setting": "[8]", "value": 105, "unit": "%"}, {"measurement": "Activity", "setting": "[9]", "value": 11.44, "unit": "%"}, {"measurement": "Activity", "setting": "[10]", "value": "Dose-Dependent Effect"}, {"measurement": "half-life at 1 µM", "setting": "[11]", "value": "> 3", "unit": "h"}, {"measurement": "Activity", "setting": "[12]", "value": "Active"}, {"measurement": "IC50", "setting": "[13]", "value": 3060, "unit": "nM"}, {"measurement": "inhibition", "setting": "[14]", "value": "Dose-Dependent Effect"}, {"measurement": "Activity", "setting": "[15]", "value": "<50", "unit": "%"}, {"measurement": "Activity", "setting": "[16]", "value": "Active"}, {"measurement": "Activity", "setting": "[17]", "value": "Active"}]}]}
